Here are results for 15 compounds from PubChem BioAssay (NCI).

Each structure is given as a SMILES string.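 These data come from cells grown in 96-well plates and exposed to compound for 48 hours at five concentrations. Abbreviation: GI50, concentration required for 50% inhibition of growth. Definition used: TGI = concentration required for complete inhibition of growth.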 A value given as a limit tells only on which side of the number the result lay.

Among the test systems are HL-60(TB) leukemia; OVCAR-8 ovarian; HCT-15 colon; HCC-2998 colon; UO-31 renal; EKVX NSCLC; RPMI-8226 leukemia; K-562 leukemia; OVCAR-3 ovarian.
Experiment in all cases: NCI anticancer screen, dose series, 48 h

In the case of `CN1CCC(=O)/C(=C/c2ccccc2)C1`, the TGI is 41.5 µM in the experiment on HL-60(TB) leukemia; 51.7 µM in the experiment on OVCAR-8 ovarian; more than 50 µM in the experiment with HCT-15 colon; 23.6 µM in the experiment with HCC-2998 colon; 32.6 µM in the experiment on UO-31 renal; 40.5 µM in the experiment with EKVX NSCLC. Further, the results for the TGI in the experiment on RPMI-8226 leukemia, with K-562 leukemia and with OVCAR-3 ovarian were 15.7 µM, more than 28.9 µM and 26.2 µM, respectively.
For `CN(C)C(=S)/N=c1\sn(C)/c(=N\C(=S)N(C)C)n1C`, the TGI in the experiment with HL-60(TB) leukemia, in the experiment on OVCAR-8 ovarian, in the experiment with HCT-15 colon, in the experiment with HCC-2998 colon, with UO-31 renal and in the experiment with EKVX NSCLC was more than 100 µM in each case. For the same compound, the TGI with RPMI-8226 leukemia, with K-562 leukemia and with OVCAR-3 ovarian was more than 100 µM in each case.
`Cc1cc2c(=O)c3ccccc3[nH]c2c(C(N)=O)c1C`: the TGI with OVCAR-8 ovarian, with HCT-15 colon, in the experiment on UO-31 renal, in the experiment on EKVX NSCLC, in the experiment with RPMI-8226 leukemia and in the experiment on K-562 leukemia was more than 100 µM in each case. Further, the TGI in the experiment with OVCAR-3 ovarian was more than 100 µM.
With `CC12CCC(=O)C[C@H]1CCC(OC=O)C2Br` (stereo not given in full), the TGI in the experiment on HL-60(TB) leukemia, with OVCAR-8 ovarian, in the experiment with HCT-15 colon, with HCC-2998 colon, in the experiment on UO-31 renal and in the experiment on RPMI-8226 leukemia was more than 100 µM throughout. The TGI in the experiment with K-562 leukemia and in the experiment with OVCAR-3 ovarian was more than 100 µM in each case.
For `COC(=O)C(=Cc1cc(OC)c(OC)c(OC)c1-c1cc2c(cc1C1(C)OCCS1)OCO2)C(=O)OC` (stereo not given), the TGI in the experiment on HL-60(TB) leukemia, in the experiment with OVCAR-8 ovarian, with HCT-15 colon, in the experiment on HCC-2998 colon, with EKVX NSCLC and in the experiment on RPMI-8226 leukemia was more than 100 µM in each case. Further, the TGI was more than 100 µM in the experiment on K-562 leukemia and 54.6 µM in the experiment on OVCAR-3 ovarian.
Consider `COc1cc(OC)c2c(=O)cc(-c3ccc(OC)c(OC)c3OC)oc2c1`, for which the TGI in the experiment with HL-60(TB) leukemia, in the experiment with HCT-15 colon, in the experiment with HCC-2998 colon, with EKVX NSCLC, with RPMI-8226 leukemia and in the experiment with K-562 leukemia was more than 100 µM throughout. Besides, the TGI with OVCAR-3 ovarian is more than 100 µM.
For the compound `O=C1N=C2Sc3ccc4ccccc4c3N2C1=O`, the TGI with HL-60(TB) leukemia was more than 100 µM; with OVCAR-8 ovarian it was 34 µM; in the experiment on HCT-15 colon, 61.9 µM; in the experiment on HCC-2998 colon it was 68.7 µM; in the experiment on UO-31 renal, 33.3 µM; with EKVX NSCLC, 47.9 µM. The values for the TGI in the experiment on RPMI-8226 leukemia, in the experiment with K-562 leukemia and in the experiment with OVCAR-3 ovarian were more than 100 µM, more than 100 µM and 37.1 µM, respectively.
`O=C(/C(=C/c1ccc(Cl)cc1)c1ccccc1)c1ccccc1`: the TGI with HL-60(TB) leukemia was 66.5 µM; in the experiment on OVCAR-8 ovarian, 50.7 µM; in the experiment on HCT-15 colon, 30.6 µM; with HCC-2998 colon it was 31.2 µM; in the experiment on UO-31 renal, more than 100 µM; in the experiment with EKVX NSCLC, 72.4 µM. The TGI in the experiment on RPMI-8226 leukemia is 45.4 µM; in the experiment on K-562 leukemia, more than 100 µM.
As to `NC1CCN(Cc2ccccc2)CC1`, the GI50 with HL-60(TB) leukemia, in the experiment on OVCAR-8 ovarian, in the experiment with HCT-15 colon, in the experiment with HCC-2998 colon, with UO-31 renal and in the experiment with RPMI-8226 leukemia was more than 100 µM throughout. Besides, the GI50 in the experiment with K-562 leukemia and in the experiment on OVCAR-3 ovarian was more than 100 µM in each case. Moreover, the TGI in the experiment with HL-60(TB) leukemia, in the experiment on OVCAR-8 ovarian, in the experiment on HCT-15 colon, with HCC-2998 colon, in the experiment with UO-31 renal and in the experiment on RPMI-8226 leukemia was more than 100 µM each time. The TGI in the experiment on K-562 leukemia and with OVCAR-3 ovarian was more than 100 µM in each case.
In the case of `COC(=O)/C(=C/c1ccc(OC)cc1)C(C(=O)O)=C1CCCC1`, the TGI in the experiment with HL-60(TB) leukemia, in the experiment on OVCAR-8 ovarian, in the experiment with HCT-15 colon, in the experiment with HCC-2998 colon, with UO-31 renal and with EKVX NSCLC was more than 100 µM in each case. In addition, the TGI in the experiment on RPMI-8226 leukemia and with K-562 leukemia was more than 100 µM each time.
With `c1ccc2c(OCCSCCCCCCCCCCSCCOc3cccc4ccccc34)cccc2c1`, the TGI with HL-60(TB) leukemia, in the experiment on OVCAR-8 ovarian, in the experiment on HCT-15 colon, in the experiment on HCC-2998 colon, in the experiment with UO-31 renal and in the experiment on EKVX NSCLC was more than 100 µM each time. Also, the TGI with RPMI-8226 leukemia, with K-562 leukemia and in the experiment on OVCAR-3 ovarian was more than 100 µM throughout.
`Cc1ccccc1C(=O)c1cc(O)ccc1O`: the TGI in the experiment on HL-60(TB) leukemia, with OVCAR-8 ovarian, with HCT-15 colon, with HCC-2998 colon, with UO-31 renal and in the experiment with EKVX NSCLC was more than 100 µM each time. Moreover, the TGI in the experiment with RPMI-8226 leukemia, in the experiment with K-562 leukemia and in the experiment on OVCAR-3 ovarian was more than 100 µM in each case.
On to `COc1c(O)c2c(=O)cc3c4c5c(cc(=O)c6c(O)c(OC)c(CC(C)O)c(c(c1CC(C)O)c24)c65)OCO3` (stereo not given), for which the TGI with HL-60(TB) leukemia was 5.1 µM; in the experiment on OVCAR-8 ovarian it was 5.15 µM; with HCT-15 colon, 4.13 µM; in the experiment on UO-31 renal, 5.45 µM; in the experiment on RPMI-8226 leukemia, 12 µM; in the experiment on K-562 leukemia, 43.3 µM. The compound further had a TGI with OVCAR-3 ovarian of 6.63 µM.
`O=C(CC1C(=O)Nc2ccccc2S1=O)Nc1cc(Cl)ccc1Cl` (stereo not given): the TGI in the experiment with HL-60(TB) leukemia, with OVCAR-8 ovarian, with HCT-15 colon, in the experiment on HCC-2998 colon, in the experiment on UO-31 renal and in the experiment on EKVX NSCLC was more than 100 µM in each case. The TGI with RPMI-8226 leukemia, in the experiment with K-562 leukemia and in the experiment on OVCAR-3 ovarian was more than 100 µM each time.
In the case of `COc1ccc2c(c1OCC(=O)O)C(=O)C(CCC(=O)O)CC2` (stereo not given), the TGI in the experiment on HL-60(TB) leukemia, in the experiment with OVCAR-8 ovarian, in the experiment on HCT-15 colon, in the experiment with HCC-2998 colon, in the experiment on EKVX NSCLC and in the experiment on RPMI-8226 leukemia was more than 100 µM throughout. This compound registered a TGI with OVCAR-3 ovarian of more than 100 µM.
